Test systems include HOP-18 NSCLC; XF 498 CNS; LXFL 529 NSCLC; DMS 273 small cell lung; SNB-78 CNS; RXF-631 renal; P388 leukemia; SN12K1 renal.
Common to all, as to test: NCI tumour cell line growth inhibition, 48 h

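Results reflect a 48-hour exposure of cells in 96-well plates to compound at five concentrations. TGI: total growth inhibition.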 Some results are limits rather than exact numbers.

This is an account of results in PubChem BioAssay (NCI).

With `Cc1cc([N+](=O)[O-])c(S(=O)(=O)c2ccccc2)c([N+](=O)[O-])c1`, the TGI with HOP-18 NSCLC was 29.6 µM; in the test with XF 498 CNS it was 27.6 µM; in the test on LXFL 529 NSCLC, 10.6 µM; with DMS 273 small cell lung, 32.1 µM; with SNB-78 CNS it was 48.6 µM; with RXF-631 renal it was more than 100 µM.

As to `CC(c1ccccc1)N1CC(C)(c2ccccc2)N(O)C(c2ccccc2)C1C` (configuration not stated), the TGI was 51.2 µM in the test with HOP-18 NSCLC; 37.3 µM in the test with LXFL 529 NSCLC; more than 100 µM with DMS 273 small cell lung; 89.9 µM with SNB-78 CNS; 82 µM in the test on RXF-631 renal.

`Nc1c(N=Nc2ccc(-c3ccc(N=Nc4c(O)ccc5cc(S(=O)(=O)O)cc(S(=O)(=O)O)c45)cc3)cc2)c(S(=O)(=O)O)cc2cc(S(=O)(=O)O)c(N=Nc3ccccc3)c(O)c12`: the TGI with HOP-18 NSCLC, in the test on P388 leukemia, in the test with SN12K1 renal, with XF 498 CNS, with DMS 273 small cell lung and with SNB-78 CNS was more than 100 µM in each case.

Take `COc1cc2cccc(N=Cc3c(Br)ccc(OC)c3OC(C)C)c2cc1OC`: the TGI in the test with XF 498 CNS, in the test with LXFL 529 NSCLC and in the test with SNB-78 CNS was more than 100 µM in each case.

As to `CC(=O)NC1=C(NCC(C)C)C(=O)c2ccccc2C1=O`, the TGI is 29.5 µM with HOP-18 NSCLC; 27 µM in the test with XF 498 CNS; 34.4 µM in the test with LXFL 529 NSCLC; 30.7 µM in the test on DMS 273 small cell lung; 89.1 µM with SNB-78 CNS.

For `OC12CCCCCC1(N1CCOCC1)c1ccccc12` (configuration not stated), the TGI in the test on HOP-18 NSCLC, with LXFL 529 NSCLC, in the test on DMS 273 small cell lung and in the test on SNB-78 CNS was more than 100 µM throughout.

With `CCN(CC)CCCCC1CCN(CC(=O)N2c3ccccc3NC(=O)CC2C)CC1` (configuration not stated), the TGI in the test on HOP-18 NSCLC, in the test with LXFL 529 NSCLC, with DMS 273 small cell lung, in the test with SNB-78 CNS and in the test on RXF-631 renal was more than 100 µM throughout.

`COC(=O)CC(NC(=O)OCc1ccccc1)C(C(=O)OCc1ccccc1)C1(C)OCCO1` (configuration not stated): the TGI is 42.3 µM in the test on XF 498 CNS, 73 µM with LXFL 529 NSCLC, more than 100 µM in the test with DMS 273 small cell lung and more than 100 µM in the test on RXF-631 renal.

On to `Cc1cc2occ(-c3ccc(Cl)cc3)c2c(=O)o1`, for which the TGI in the test on HOP-18 NSCLC, in the test with LXFL 529 NSCLC, with DMS 273 small cell lung, with SNB-78 CNS and in the test with RXF-631 renal was more than 100 µM throughout.

`O=C(OCc1ccccc1C1CSCSC1)c1cc(C(=O)OCc2ccccc2C2CSCSC2)c(C(=O)OCc2ccccc2C2CSCSC2)cc1C(=O)OCc1ccccc1C1CSCSC1`: the TGI in the test with HOP-18 NSCLC, with LXFL 529 NSCLC, in the test with DMS 273 small cell lung and in the test with SNB-78 CNS was more than 100 µM throughout.

Turning to `O=c1c2c(nc3n1CCC3)sc1c(O)c(Br)ccc12`, the TGI in the test with HOP-18 NSCLC is more than 100 µM; with XF 498 CNS, 36.8 µM; with DMS 273 small cell lung, 31 µM; in the test on SNB-78 CNS, more than 100 µM.

For `C/C(=N\Nc1ccccc1)C(CN(C)C)C(c1ccccc1)c1c(O)c2ccccc2oc1=O` (configuration not stated), the TGI in the test on LXFL 529 NSCLC and in the test on RXF-631 renal was more than 100 µM throughout.

As to `CCOC1=C2NC(Cc3ccc(F)cc3)=NC2C(=O)c2ccccc21` (configuration not stated), the TGI in the test with LXFL 529 NSCLC was 77.3 µM; in the test with DMS 273 small cell lung, 81.3 µM; in the test on SNB-78 CNS, more than 100 µM; in the test on RXF-631 renal it was more than 100 µM.

Take `c1ccc(OCCSCCCCCCCCCCSCCOc2ccccc2)cc1`: the TGI in the test on HOP-18 NSCLC, in the test with LXFL 529 NSCLC, in the test with SNB-78 CNS and in the test on RXF-631 renal was more than 100 µM each time.

With `Cc1cc(=O)[nH]c(NNC(C#N)c2ccc([N+](=O)[O-])cc2)n1` (configuration not stated), the TGI in the test on HOP-18 NSCLC, with LXFL 529 NSCLC, in the test with DMS 273 small cell lung and in the test with SNB-78 CNS was more than 100 µM each time.

With `C/C(=N/O)c1ccc2c(c1)C(=NO)c1cc(/C(C)=N/O)ccc1-2`, the TGI in the test with HOP-18 NSCLC was 27.4 µM; in the test on XF 498 CNS it was 36.2 µM; in the test on LXFL 529 NSCLC, 29 µM; in the test on DMS 273 small cell lung, more than 100 µM; with SNB-78 CNS, 47.9 µM.

With `COc1ccc(-c2c3ccccc3c(-c3ccc(OCCCCCBr)cc3)c3ccccc23)cc1`, the TGI with LXFL 529 NSCLC and in the test with DMS 273 small cell lung was more than 100 µM throughout.

`CCOc1ccc(-c2oc(/C=N/NS(=O)(=O)c3ccc(C)cc3)c([N+](=O)[O-])c2-c2ccc(OCC)cc2)cc1`: the TGI is 26.6 µM in the test with LXFL 529 NSCLC, 23 µM in the test with DMS 273 small cell lung and 34.6 µM in the test with SNB-78 CNS.

Take `CC(=O)Nc1ccc(C(=O)N2N=C(C)/C(=C/c3ccc(O)cc3)C2=O)cc1`: the TGI with XF 498 CNS, in the test with DMS 273 small cell lung and in the test on SNB-78 CNS was more than 100 µM throughout.

`O=S1(=O)CCN(c2ccccc2CC(c2c[nH]c3ccccc23)c2c[nH]c3ccccc23)CC1`: the TGI turned out to be 32.7 µM with HOP-18 NSCLC, 25.7 µM in the test on LXFL 529 NSCLC, 37.5 µM with DMS 273 small cell lung and 74.3 µM with SNB-78 CNS.
